In paper PMC5413848, “Optimization of intestinal microsomal preparation in the rat: A systematic approach to assess the influence of various methodologies on metabolic activity and scaling factors” (Biopharmaceutics & Drug Disposition, 2017):
Where two headings read alike, the source gives them in different places.

Experiments:
[1] = In vitro-in vivo extrapolation of rat intestinal unbound intrinsic clearance (CL int,u,gut); assay type: in vitro ADME; conditions: for CL int,u,gut, Combined in-house pools: mean of pool 1 and pool 2 CL int,u and scaling factors; for CL int,u,gut, Pool 1 Mean: pool 1, pool specific scaling factors; for CL int,u,gut, Pool 1 Mean / CL int,u,gut, Pool 2 Mean: threshold 0.01 l/h; for CL int,u,gut, Pool 2 Mean: pool 2, pool specific scaling factors
Text: The CL int,u values were scaled to give CL int,u,gut using scaling factors for the corresponding microsomal pool (Eq. (5)). The use of scalars from the mean of both pools was also investigated, and was also used for scaling of commercial microsome CL int,u data.
(5) CLint,u,G=CLuint⋅MPPGI⋅Intestine Segment Weight

in vitro = conditions: for microsomal CLint at 1 μM: Han-Wistar, rat, in-house combined cofactors
Procedure: (§1) Microsomes prepared previously via the optimized method (preparation method 8) were combined to form pool 1 (n = 9 rats). A second set of three preparations was combined to form pool 2 (n = 9 rats). Intestinal microsomes were also prepared from intestinal tissue flash‐frozen in tubes on arrival in the laboratory and kept at −80°C until thawing on ice on the morning of preparation, (n = 3 occasions of n = 3 samples). In addition, for comparative purposes microsomes were also prepared from scraped intestinal tissues. Microsomes were prepared after cutting along the length of intestine and gently scraping the intestinal epithelial with a glass microscope slide (n = 1 occasion, n = 3 samples). Commercially available pooled intestinal microsomes were also used as a comparator to those produced in‐house. […] The microsomes were stored at −80°C prior to experiments.
The microsomes prepared from the final optimized preparation method (method 8) were measured for CYP content on the day of preparation prior to storage. These microsomes (n = 3 samples prepared on n = 3 separate occasions) were subsequently thawed on ice and pooled for pool 1. The pool 1 microsomes were then assayed for testosterone and 4‐NP metabolite formation. Additional intestinal microsomes were created using the identical methodology with the same number of rat intestinal samples (n = 3 samples prepared on n = 3 occasions) and assayed for testosterone and 4‐NP metabolite formation as well as for CYP content on the day of preparation before storage. The microsomes from this second set of preparations were then thawed and pooled to form pool 2.
(§2) Midazolam and 7‐hydroxycoumarin were both incubated at 1 mg/ml and 0.5 mg/ml. The microsomes were incubated on ice with alamethacin (50 μg/mg) for 15 min. […] The samples were quenched with ice cold acetonitrile (3:1 quench to sample) containing the internal standard (AZ1). The total incubation time was 40 min. Quenched samples were stored overnight at −20°C. The following day, the samples were diluted with 200 μl UPH2O, and spun at 3000 rpm (Sorvall legend RT centrifuge) for 15 min, and 200 μl of supernatant taken for analysis.

[2] = Substrate depletion in commercial Han Wistar rat intestinal microsomes, combined or individual CYP and UGT cofactors; conditions: for microsomal CLint at 1 μM: male, Han Wistar, rat, pH 7.4, CL int,u, Commercial Han Wistar pool
Procedure: as §1, §2

[3] = Nonspecific protein binding in rat intestinal microsomes (96-well micro-equilibrium dialysis)
Procedure: Nonspecific protein binding was determined in microsomes (1 mg/ml) using high throughput 96‐well micro‐equilibrium dialysis methodology (HTDialysis, LLC, Gales Ferry, CT, USA). These experiments used dialysis membrane strips with 12–14 kDa molecular mass cut‐off (HTDialysis). The microsomes were constituted in 0.1 M phosphate buffer (pH 7.4). The final concentrations of the test compounds was 1 μM. Microsomes containing the test compound were aliquoted into donor wells in triplicate, and buffer placed in the acceptor wells. The plate was incubated at 37°C and left to equilibrate on a plate shaker (450 rpm) for 4 h. Samples from both the acceptor and donor sides of the membrane were then transferred to 96‐well plates and quenched in acetonitrile containing internal standard (AZ1). The same sample preparation and LC–MS/MS methodology was used as described for the microsomal incubations. Compound MS transitions and retention times are reported in Supplemental material Table 3. Fuinc was calculated as the ratio of acceptor to donor both normalized for internal standard as described previously 41. Correction for protein binding for depletion experiments undertaken at 0.5 mg/ml were made using Equation (4).
(4) fumic,2=1/[P]mic,2/Pmic,1×1−fumic,1/fumic,1+1
where mic,1 denotes 1 mg/ml and mic,2 is 0.5 mg/ml.

[4] = microsomes, pH 7.4, CL int,u, Pool 1
[5] = microsomes, pH 7.4, CL int,u, Pool 2
[6] = commercial Han Wistar microsomes, individual cofactors
[7] = CYP cofactors, 1 mg/ml, 1 μM compound, CYP cofactors only
[8] = Combined cofactors, 1 mg/ml, 1 μM compound, combined CYP and UGT cofactors
[9] = UGT cofactors, 1 mg/ml, 1 μM compound, UGT cofactors only
[10] = rat intestinal microsomes, in-house pool 1, pH 7.4, CL int,u, Pool 1, pool 1, 1 mg/ml, 1 μM compound, CYP and UGT cofactors
[11] = rat intestinal microsomes 1 mg/ml, compound 1 μM

## O=c1ccc2ccc(O)cc2o1 [7‐Hydroxycoumarin]
[1]
  CL int,u,gut, Mean Han Wistar commercial microsomes: 0.07 L/h
In vitro; [4]
  microsomal CLint at 1 μM: 196 µL/min/mg
In vitro; [5]
  microsomal CLint at 1 μM: 264 µL/min/mg
[2]; [6]
  Main route of elimination (CYP vs UGT cofactors): glucuronidation
[2]; [7]
  microsomal CLint at 1 μM: 0.9 µL/min/mg
[2]; [8]
  microsomal CLint at 1 μM: 272 µL/min/mg
[2]; [9]
  microsomal CLint at 1 μM: 327 µL/min/mg
[3]
  Predicted protein binding at 0.5 mg/ml from data measured at 1 mg/ml: 1.00
[3]; rat, 4 h, 1 μM, pH 7.4
  Microsomal binding: 0%
  fuinc: 1.00

## CN(C)CCC=C1c2ccccc2CCc2ccccc21 [Amitriptyline]
[1]
  CL int,u,gut, Combined in-house pools: 0.01 L/h
  CL int,u,gut, Pool 1 Mean: 0.01 L/h
In vitro; [10]
  microsomal CLint at 1 μM: 24.3 µL/min/mg
In vitro; rat intestinal microsomes, in-house pool 2, pH 7.4, CL int,u, Pool 2, pool 2, 1 mg/ml, 1 μM compound, CYP and UGT cofactors
  microsomal CLint at 1 μM: 19.9 µL/min/mg
[2]; [6]
  Main route of elimination (CYP vs UGT cofactors): comparable
[2]; commercial microsomes, eight compounds
  Agreement of additive individual cofactor CL int,u with combined cofactor CL int,u: outside 2‐fold range
[2]; [7]
  microsomal CLint at 1 μM: 5.3 µL/min/mg
[2]; [8]
  microsomal CLint at 1 μM: 23.8 µL/min/mg
[2]; [9]
  microsomal CLint at 1 μM: 3 µL/min/mg
[3]; [11]
  fuinc: 0.20

## CC(C)NCC(O)COc1ccc(COCCOC(C)C)cc1 (stereo not drawn) [Bisporolol]
[1]
  CL int,u,gut, Combined in-house pools: 0.02 L/h
  CL int,u,gut, Pool 1 Mean: 0.01 L/h
  CL int,u,gut, Pool 2 Mean: 0.03 L/h
In vitro; pool 1, 1 mg/ml, 1 μM compound, CYP and UGT cofactors
  CL int,u, in-house combined cofactors, Pool 1: 5.4 µL/min/mg
In vitro; pool 2, 1 mg/ml, 1 μM compound, CYP and UGT cofactors
  CL int,u, in-house combined cofactors, Pool 2: < 0.1 µL/min/mg
[3]; [11]
  fuinc: 0.89

## CCCCNc1cc(C(=O)O)cc(S(N)(=O)=O)c1Oc1ccccc1 [Bumetanide]
[3]; rat, 4 h, 1 μM, pH 7.4
  fuinc: 0.92

## O=C1CC2(CCCC2)CC(=O)N1CCCCN1CCN(c2ncccn2)CC1 [Buspirone]
In vitro; microsomes, pH 7.4, CL int,u, Pool 1, pool 1, 1 mg/ml, 1 μM compound, CYP and UGT cofactors
  microsomal CLint at 1 μM: 3.2 µL/min/mg
In vitro; microsomes, pH 7.4, CL int,u, Pool 2, pool 2, 1 mg/ml, 1 μM compound, CYP and UGT cofactors
  microsomal CLint at 1 μM: 1.4 µL/min/mg

## O=C(O)Cc1ccccc1Nc1c(Cl)cccc1Cl [Diclofenac]
[3]; rat, 4 h, 1 μM, pH 7.4
  fuinc: 0.98

## COc1ccc([C@@H]2Sc3ccccc3N(CCN(C)C)C(=O)[C@@H]2OC(C)=O)cc1 [Diltiazem]
In vitro; [4]
  microsomal CLint at 1 μM: 21.8 µL/min/mg
In vitro; [5]
  microsomal CLint at 1 μM: 26.7 µL/min/mg
[3]; rat, 4 h, 1 μM, pH 7.4
  fuinc: 0.85

## COc1ccc2c(c1)c(CC(=O)O)c(C)n2C(=O)c1ccc(Cl)cc1 [Indomethacin]
[1]
  CL int,u,gut, Mean Han Wistar commercial microsomes: 0.22 L/h
In vitro; [4]
  microsomal CLint at 1 μM: 48.9 µL/min/mg
In vitro; [5]
  microsomal CLint at 1 μM: 62.4 µL/min/mg
[3]; rat, 4 h, 1 μM, pH 7.4
  fuinc: 0.88

## CC(C)Oc1ccc2c(=O)c(-c3ccccc3)coc2c1 [Ipriflavone]
[1]
  CL int,u,gut, Mean Han Wistar commercial microsomes: 0.05 L/h
In vitro; [4]
  microsomal CLint at 1 μM: 495 µL/min/mg
In vitro; [5]
  microsomal CLint at 1 μM: 416 µL/min/mg
[2]
  Main route of elimination (CYP vs UGT cofactors): CYP mediated metabolism
[2]; microsomes, CYP cofactors
  microsomal CLint at 1 μM: 59.1 µL/min/mg
[2]; microsomes, Combined cofactors
  microsomal CLint at 1 μM: 72 µL/min/mg
[2]; microsomes, UGT cofactors
  microsomal CLint at 1 μM: 7.3 µL/min/mg
[3]; rat, 4 h, 1 μM, pH 7.4
  Predicted protein binding at 0.5 mg/ml from data measured at 1 mg/ml: 0.43
  fuinc: 0.28

## CCCCC1=NC2(CCCC2)C(=O)N1Cc1ccc(-c2ccccc2-c2nnn[nH]2)cc1 [Irbesartan]
[1]
  CL int,u,gut, Mean Han Wistar commercial microsomes: 0.03 L/h
In vitro; [4]
  microsomal CLint at 1 μM: 31.9 µL/min/mg
In vitro; [5]
  microsomal CLint at 1 μM: 35.9 µL/min/mg
[2]; [6]
  Main route of elimination (CYP vs UGT cofactors): glucuronidation
[2]; [7]
  microsomal CLint at 1 μM: 1.5 µL/min/mg
[2]; [8]
  microsomal CLint at 1 μM: 15.2 µL/min/mg
[2]; [9]
  microsomal CLint at 1 μM: 9.4 µL/min/mg
[3]; rat, 4 h, 1 μM, pH 7.4
  fuinc: 0.79

## CCCCc1nc(Cl)c(CO)n1Cc1ccc(-c2ccccc2-c2nn[nH]n2)cc1 [Losartan]
[1]
  CL int,u,gut, Mean Han Wistar commercial microsomes: 0.04 L/h
In vitro; [4]
  microsomal CLint at 1 μM: 34.8 µL/min/mg
In vitro; [5]
  microsomal CLint at 1 μM: 14.8 µL/min/mg
[2]; [6]
  Main route of elimination (CYP vs UGT cofactors): glucuronidation
[2]; [7]
  microsomal CLint at 1 μM: 0.1 µL/min/mg
[2]; [8]
  microsomal CLint at 1 μM: 10 µL/min/mg
[2]; [9]
  microsomal CLint at 1 μM: 9 µL/min/mg
[3]; rat, 4 h, 1 μM, pH 7.4
  fuinc: 0.87

## COc1ccc2[nH]c([S+]([O-])Cc3ncc(C)c(OC)c3C)nc2c1 (stereo not drawn) [Omeprazole]
[1]
  CL int,u,gut, Combined in-house pools: 0.01 L/h
  CL int,u,gut, Pool 1 Mean: 0.01 L/h
  CL int,u,gut, Pool 2 Mean: 0.01 L/h
In vitro; [10]
  microsomal CLint at 1 μM: 7.6 µL/min/mg
[3]; [11]
  fuinc: 0.90

## CN1CCN(CC(=O)N2c3ccccc3C(=O)Nc3cccnc32)CC1 [Pirenzepine]
[1]
  CL int,u,gut, Mean Han Wistar commercial microsomes: 3.21 L/h
In vitro; [4]
  microsomal CLint at 1 μM: 3.9 µL/min/mg
In vitro; [5]
  microsomal CLint at 1 μM: 2.7 µL/min/mg
[3]; rat, 4 h, 1 μM, pH 7.4
  Microsomal binding: 0%
  fuinc: 1.00

## O=C(c1ccc(OCCN2CCCCC2)cc1)c1c(-c2ccc(O)cc2)sc2cc(O)ccc12 [Raloxifene]
[3]; rat, 4 h, 1 μM, pH 7.4
  fuinc: 0.06

## CCCc1nn(C)c2c(=O)[nH]c(-c3cc(S(=O)(=O)N4CCN(C)CC4)ccc3OCC)nc12 [Sildenafil]
In vitro; [4]
  microsomal CLint at 1 μM: 23.8 µL/min/mg
In vitro; [5]
  microsomal CLint at 1 μM: 18.4 µL/min/mg
[3]; rat, 4 h, 1 μM, pH 7.4
  fuinc: 0.73

## CCC(C)(C)C(=O)O[C@H]1C[C@@H](C)C=C2C=C[C@H](C)[C@H](CC[C@@H]3C[C@@H](O)CC(=O)O3)[C@H]21 [Simvastatin]
[1]
  CL int,u,gut, Combined in-house pools: 1.38 L/h
  CL int,u,gut, Pool 1 Mean: 1.08 L/h
  CL int,u,gut, Pool 2 Mean: 1.57 L/h
[3]; [11]
  fuinc: 0.93

## C=CC[C@@H]1/C=C(\C)C[C@H](C)C[C@H](OC)[C@H]2O[C@@](O)(C(=O)C(=O)N3CCCC[C@H]3C(=O)O[C@H](/C(C)=C/[C@@H]3CC[C@@H](O)[C@H](OC)C3)[C@H](C)[C@@H](O)CC1=O)[C@H](C)C[C@@H]2OC [Tacrolimus]
[1]
  CL int,u,gut, Combined in-house pools: 59.22 L/h
  CL int,u,gut, Pool 1 Mean: 37.77 L/h
  CL int,u,gut, Pool 2 Mean: 77.09 L/h
In vitro; rat intestinal microsomes, in-house pool 1, pH 7.4, CL int,u, Pool 1, pool 1, incubated at 0.5 mg/ml (footnote b), 1 μM compound
  microsomal CLint at 1 μM: 465 µL/min/mg
In vitro; rat intestinal microsomes, in-house pool 2, pH 7.4, CL int,u, Pool 2, pool 2, incubated at 0.5 mg/ml (footnote b), 1 μM compound
  microsomal CLint at 1 μM: 413 µL/min/mg
[3]; [11]
  fuinc: 0.32
[3]; rat, 4 h, 1 μM, pH 7.4
  Predicted protein binding at 0.5 mg/ml from data measured at 1 mg/ml: 0.48
